This note sets out measurements from patent publication US12486269B2 (Aconcagua Bio, Inc., priority 2024, dated 2025).

SMILES strings stand for the structures.

The target of experiment [1] is T1, human calcitonin receptor (CTR) (Homo sapiens, UniProt P30988).
T1 construct: expressed in transfected cells; host or cells: COS-7 (COS7-human CTR Clone #2)
T1 sequence (P30988 25-474): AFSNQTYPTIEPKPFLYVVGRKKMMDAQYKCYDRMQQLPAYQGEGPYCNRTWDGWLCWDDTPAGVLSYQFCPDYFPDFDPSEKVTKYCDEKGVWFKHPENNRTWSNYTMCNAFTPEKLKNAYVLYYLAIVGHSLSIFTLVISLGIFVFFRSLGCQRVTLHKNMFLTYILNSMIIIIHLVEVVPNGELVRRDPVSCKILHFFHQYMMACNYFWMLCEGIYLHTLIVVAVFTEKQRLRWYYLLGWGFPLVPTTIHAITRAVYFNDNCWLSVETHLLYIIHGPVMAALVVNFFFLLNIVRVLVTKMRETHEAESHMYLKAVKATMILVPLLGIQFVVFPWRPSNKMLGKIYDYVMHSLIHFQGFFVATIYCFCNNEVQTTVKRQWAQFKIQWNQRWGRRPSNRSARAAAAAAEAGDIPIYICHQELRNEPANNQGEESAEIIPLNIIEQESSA
In words: Calcitonin Receptor (CTR) cAMP Assay. It counts as cell-based. The conditions noted are these: COS7-human CTR Clone #2 stable cell line, cAMP dynamic 2 kit, 30 min; read-out: Calcitonin Receptor cAMP Stimulation Activity: EC50. In a few lines:
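cAMP accumulation was measured by HTRF cAMP dynamic 2 read at 665/615 nm, 1 h at room temperature, with results scaled between vehicle and positive control. Before detection, COS7-human CTR stable cells were stimulated 30 min at 37 °C with compound (4-fold dilutions) in IBMX-containing HBSS/HEPES/casein buffer.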

Experiment [2] has as its target T2, COS-7/AMY3 (human calcitonin receptor (CTR) and RAMP3) (Homo sapiens, UniProt O60896+P30988).
T2 construct: expressed in transfected cells; host or cells: COS-7
In words: Amylin Receptor cAMP Assay II. It is filed as cell-based. To be noted: values marked **: Amylin Receptor cAMP Assay II; COS-7/AMY3 cells, cAMP dynamic 2 kit, 30 min; read-out: Amylin Receptor cAMP Stimulation Activity: EC50. The procedure, abridged: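 Agonist-induced cAMP was quantified by HTRF ratio at 665/615 nm and expressed as % of the window from vehicle to MAX control. Stimulation lasted 30 min at 37 °C in HBSS/20 mM HEPES/0.5 mM IBMX/0.1% casein, using stable human CTR+RAMP3 (AMY3) COS-7 cells at 2000 per well.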

T2 sequence (O60896 24-148, one chain of several): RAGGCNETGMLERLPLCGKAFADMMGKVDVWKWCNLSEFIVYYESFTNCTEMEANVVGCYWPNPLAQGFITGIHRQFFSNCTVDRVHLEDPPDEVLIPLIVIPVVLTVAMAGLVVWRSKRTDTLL

In the case of `COc1cccc2c1CC[C@H]2Nc1nccc2cc(-c3c4c(nc(CCc5ccc(Cl)cc5)c3-c3n[nH]c(=O)o3)[C@@H]3CCCN3C4=O)sc12` [Compound 242, 5-((S)-2-(4-chlorophenethyl)-4-(7-(((R)-4-methoxy-2,3-dihydro-1H-inden-1-yl)amino)thieno[2,3-c]pyridin-2-yl)-5-oxo-7,8,9,9a-tetrahydro-5H-pyrido[2,3-a]pyrrolizin-3-yl)-1,3,4-oxadiazol-2(3H)-one], the concentration for a half-maximal effect (EC50) turned out to be 0.668 nM in experiment [1] and 18.4 nM in experiment [2].

As for `COc1cccc2c1CC[C@H]2Nc1nccc2cc(-c3c4c(nc(CCc5cccc(C6CCOC6)c5)c3-c3noc(=O)[nH]3)[C@@H]3CCCN3C4=O)sc12` (stereo partly drawn) [Compound 151, 3-((9aS)-4-(7-(((R)-4-methoxy-2,3-dihydro-1H-inden-1-yl)amino)thieno[2,3-c]pyridin-2-yl)-5-oxo-2-(3-(tetrahydrofuran-3-yl)phenethyl)-7,8,9,9a-tetrahydro-5H-pyrido[2,3-a]pyrrolizin-3-yl)-1,2,4-oxadiazol-5(4H)-one], the results for the EC50 in experiment [1] and in experiment [2] were 22 nM and 159 nM, respectively.

`O=C1c2c(nc(CCc3ccc(F)cc3)c(-c3n[nH]c(=O)o3)c2-c2cc3ccnc(N[C@@H]4CCc5c4ccc(F)c5OC(F)F)c3s2)C23CC(CN12)C3` [Compound 285, (R)-5-(4-(7-((4-(difluoromethoxy)-5-fluoro-2,3-dihydro-1H-inden-1-yl)amino)thieno[2,3-c]pyridin-2-yl)-2-(4-fluorophenethyl)-5-oxo-5,7,8,9-tetrahydro-8,9a-methanopyrido[2,3-a]pyrrolizin-3-yl)-1,3,4-oxadiazol-2(3H)-one]: the EC50 was found to be 0.0136 nM in experiment [1] and 0.208 nM in experiment [2].

Take `C[C@@H](Nc1nccc2cc(-c3c4c(nc(CCc5ccc(F)cc5)c3-c3n[nH]c(=O)o3)[C@@H]3CCCN3C4=O)sc12)c1ccc(F)c(F)c1` [Compound 227, 5-((S)-4-(7-(((R)-1-(3,4-difluorophenyl)ethyl)amino)thieno[2,3-c]pyridin-2-yl)-2-(4-fluorophenethyl)-5-oxo-7,8,9,9a-tetrahydro-5H-pyrido[2,3-a]pyrrolizin-3-yl)-1,3,4-oxadiazol-2(3H)-one]: the EC50 came to 1.67 nM in experiment [1] and 33.3 nM in experiment [2].

Turning to `COc1cc(F)cc2c1CC[C@H]2Nc1nc(C)cc2cc(-c3c4c(nc(CCc5ccc(F)cc5)c3-c3n[nH]c(=O)o3)C35CC(CN3C4=O)C5)sc12` [Compound 298, (R)-5-(4-(7-((6-fluoro-4-methoxy-2,3-dihydro-1H-inden-1-yl)amino)-5-methylthieno[2,3-c]pyridin-2-yl)-2-(4-fluorophenethyl)-5-oxo-8,9-dihydro-5H,7H-8,9a-methanopyrido[2,3-a]pyrrolizin-3-yl)-1,3,4-oxadiazol-2(3H)-one], the 50% effective concentration (EC50) in experiment [1] was 0.0212 nM; in experiment [2], 0.747 nM.

With `O=C1c2c(nc(CCC3CCOCC3)c(-c3cc(=O)[nH]o3)c2-c2cc3ccnc(NCc4ccc(F)c(F)c4)c3s2)[C@@H]2CCCN12` [Compound 206, (S)-5-(4-(7-((3,4-difluorobenzyl)amino)thieno[2,3-c]pyridin-2-yl)-5-oxo-2-(2-(tetrahydro-2H-pyran-4-yl)ethyl)-7,8,9,9a-tetrahydro-5H-pyrido[2,3-a]pyrrolizin-3-yl)isoxazol-3(2H)-one], the EC50 was determined as 26.1 nM in experiment [1] and 1590 nM in experiment [2].

As for `COc1c(F)ccc2c1CC[C@H]2Nc1nccc2cc(-c3c4c(nc(CCc5ccccc5F)c3-c3n[nH]c(=O)o3)C35CC(CN3C4=O)C5)sc12` [Compound 276, (R)-5-(4-(7-((5-fluoro-4-methoxy-2,3-dihydro-1H-inden-1-yl)amino)thieno[2,3-c]pyridin-2-yl)-2-(2-fluorophenethyl)-5-oxo-8,9-dihydro-5H,7H-8,9a-methanopyrido[2,3-a]pyrrolizin-3-yl)-1,3,4-oxadiazol-2(3H)-one], the EC50 was determined as 0.0602 nM in experiment [1] and 1.57 nM in experiment [2].

Turning to `Cc1cc2cc(-c3c4c(nc(CCc5ccc(F)cc5)c3-c3n[nH]c(=O)o3)C35CC(CN3C4=O)C5)sc2c(N[C@@H]2CCc3c(Cl)cncc32)n1` [Compound 265, (R)-5-(4-(7-((4-chloro-6,7-dihydro-5H-cyclopenta[c]pyridin-7-yl)amino)-5-methylthieno[2,3-c]pyridin-2-yl)-2-(4-fluorophenethyl)-5-oxo-8,9-dihydro-5H,7H-8,9a-methanopyrido[2,3-a]pyrrolizin-3-yl)-1,3,4-oxadiazol-2(3H)-one], the values for the EC50 in experiment [1] and in experiment [2] were 0.174 nM and 7.34 nM, respectively.

Take `O=C1c2c(nc(CCc3ccc(F)cc3)c(-c3noc(=O)[nH]3)c2-c2ccc3c(ccn3Cc3ccc(F)c(F)c3)c2)[C@@H]2CCCN12` [Compound 153]: the EC50 in experiment [1] is 2.58 nM; in experiment [2], 16.6 nM.

For the compound `COc1cc(Cl)cc2c1CC[C@H]2Nc1nccc2cc(-c3c4c(nc(CCc5ccc(F)cc5)c3-c3n[nH]c(=O)o3)[C@@H]3CCCN3C4=O)sc12` [Compound 239, 5-((S)-4-(7-(((R)-6-chloro-4-methoxy-2,3-dihydro-1H-inden-1-yl)amino)thieno[2,3-c]pyridin-2-yl)-2-(4-fluorophenethyl)-5-oxo-7,8,9,9a-tetrahydro-5H-pyrido[2,3-a]pyrrolizin-3-yl)-1,3,4-oxadiazol-2(3H)-one], the concentration for a half-maximal effect (EC50) in experiment [1] amounted to 0.975 nM; in experiment [2] it was 23.4 nM.

As to `O=C1c2c(nc(CCc3ccc(F)cc3)c(-c3noc(=O)[nH]3)c2-c2cc3ccnc(N[C@@H]4CCCc5ccccc54)c3s2)[C@@H]2CCCN12` [Compound 139], the figures for the EC50 in experiment [1] and in experiment [2] were 2.7 nM and 41.5 nM, respectively.

For `COc1c(F)ccc2c1CC[C@H]2Nc1nc(C(F)F)cc2cc(-c3c4c(nc(CCc5ccc(F)cc5)c3-c3n[nH]c(=O)o3)C35CC(CN3C4=O)C5)sc12` [Compound 287, (R)-5-(4-(5-(difluoromethyl)-7-((5-fluoro-4-methoxy-2,3-dihydro-1H-inden-1-yl)amino)thieno[2,3-c]pyridin-2-yl)-2-(4-fluorophenethyl)-5-oxo-8,9-dihydro-5H,7H-8,9a-methanopyrido[2,3-a]pyrrolizin-3-yl)-1,3,4-oxadiazol-2(3H)-one], the EC50 in experiment [1] stood at 0.0178 nM; in experiment [2], 0.35 nM.

As to `COc1c(F)ccc2c1CC[C@H]2Nc1nccc2cc(-c3c4c(nc(CCc5ccc(F)cc5)c3-c3n[nH]c(=O)o3)C35CC(CN3C4=O)C5)sc12` [Compound 189, (R)-5-(4-(7-((5-fluoro-4-methoxy-2,3-dihydro-1H-inden-1-yl)amino)thieno[2,3-c]pyridin-2-yl)-2-(4-fluorophenethyl)-5-oxo-8,9-dihydro-5H,7H-8,9a-methanopyrido[2,3-a]pyrrolizin-3-yl)-1,3,4-oxadiazol-2(3H)-one], the figures for the 50% effective concentration (EC50) in experiment [1] and in experiment [2] were 0.0262 nM and 0.213 nM, respectively.

For `COc1c(F)ccc2c1CC[C@H]2Nc1nccc2cc(-c3c4c(nc(CCc5ccccc5Cl)c3-c3n[nH]c(=O)o3)C35CC(CN3C4=O)C5)sc12` [Compound 278, (R)-5-(2-(2-chlorophenethyl)-4-(7-((5-fluoro-4-methoxy-2,3-dihydro-1H-inden-1-yl)amino)thieno[2,3-c]pyridin-2-yl)-5-oxo-8,9-dihydro-5H,7H-8,9a-methanopyrido[2,3-a]pyrrolizin-3-yl)-1,3,4-oxadiazol-2(3H)-one], the EC50 is 0.0636 nM in experiment [1] and 0.517 nM in experiment [2].

Take `COc1cccc2c1CC[C@H]2Nc1nccc2cc(-c3c4c(nc(CCc5ccc(F)cc5)c3-c3noc(=O)[nH]3)[C@@H]3CCCN3C4=O)sc12` [Compound 104]: the EC50 in experiment [1] was 0.926 nM; in experiment [2] it was 25.5 nM.

`COc1c(F)ccc2c1CC[C@H]2Nc1nc(C)cc2cc(-c3c4c(nc(CCc5cccc(F)c5)c3-c3n[nH]c(=O)o3)C35CC(CN3C4=O)C5)sc12` [Compound 300, (R)-5-(4-(7-((5-fluoro-4-methoxy-2,3-dihydro-1H-inden-1-yl)amino)-5-methylthieno[2,3-c]pyridin-2-yl)-2-(3-fluorophenethyl)-5-oxo-8,9-dihydro-5H,7H-8,9a-methanopyrido[2,3-a]pyrrolizin-3-yl)-1,3,4-oxadiazol-2(3H)-one]: the EC50 was found to be 0.016 nM in experiment [1] and 0.362 nM in experiment [2].

As to `O=C1c2c(nc(CCc3ccc(F)cc3)c(-c3n[nH]c(=O)o3)c2-c2ccc3c(c2)oc(=O)n3Cc2ccc(F)cn2)[C@@H]2CCCN12` [Compound 164, (S)-6-(2-(4-fluorophenethyl)-5-oxo-3-(5-oxo-4,5-dihydro-1,3,4-oxadiazol-2-yl)-7,8,9,9a-tetrahydro-5H-pyrido[2,3-a]pyrrolizin-4-yl)-3-((5-fluoropyridin-2-yl)methyl)benzo[d]oxazol-2(3H)-one], the EC50 in experiment [1] was determined as 4.28 nM; in experiment [2] it was 39.9 nM.
